pIC50: −log10 of the molar value.
molecular target: T1, recombinant human Estrogen Receptor alpha ligand binding domain, residues 307-554 (ER alpha-LBD (GST)) (Homo sapiens, UniProt P03372); assay: ERα binding assay (LanthaScreen TR-FRET competition); conditions: TR-FRET competition with Fluormone ES2 tracer, 4 hours at room temperature; single experiment or average of two or more
T1 construct: made in house
T1 sequence (P03372 307-554): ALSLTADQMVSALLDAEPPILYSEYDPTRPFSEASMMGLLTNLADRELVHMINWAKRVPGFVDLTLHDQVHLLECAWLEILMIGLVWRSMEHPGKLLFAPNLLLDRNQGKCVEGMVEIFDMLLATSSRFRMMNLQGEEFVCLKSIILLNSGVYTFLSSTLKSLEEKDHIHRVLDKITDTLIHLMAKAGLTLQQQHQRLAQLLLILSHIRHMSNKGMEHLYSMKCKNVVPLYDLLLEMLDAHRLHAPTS

| Structure (SMILES) | pIC50 |
| --- | --- |
| Cc1ncsc1-c1ccc(CNC(=O)[C@@H]2C[C@@H](OC(=O)[C@@H]3CCCN3)CN2C(=O)[C@@H](NC(=O)CCCCCCCCCCOc2cc(F)c([C@@H]3c4[nH]c5ccccc5c4C[C@@H](C)N3CC(C)(C)F)c(F)c2)C(C)(C)C)cc1 [Example 33, (3R,5S)-1-((S)-2-(11-(3,5-Difluoro-4-((1R,3R)-2-(2-fluoro-2-methylpropyl)-3-methyl-2,3,4,9-tetrahydro-1H-pyrido[3,4-b]indol-1-yl)phenoxy)undecanamido)-3,3-dimethylbutanoyl)-5-((4-(4-methylthiazol-5-yl)benzyl)carbamoyl)pyrrolidin-3-yl L-prolinate] | 8.05 |
| CC(=O)O[C@@H]1C[C@@H](C(=O)NCc2ccc(-c3scnc3C)cc2)N(C(=O)[C@@H](NC(=O)COCCOCCOCCOc2cc(F)c([C@@H]3c4[nH]c5ccccc5c4C[C@@H](C)N3CC(C)(C)F)c(F)c2)C(C)(C)C)C1 [Example 34, (3R,5S)-1-((S)-2-(tert-Butyl)-14-(3,5-difluoro-4-((1R,3R)-2-(2-fluoro-2-methylpropyl)-3-methyl-2,3,4,9-tetrahydro-1H-pyrido[3,4-b]indol-1-yl)phenoxy)-4-oxo-6,9,12-trioxa-3-azatetradecanoyl)-5-((4-(4-methylthiazol-5-yl)benzyl)carbamoyl)pyrrolidin-3-yl Acetate] | 9.05 |
| Cc1ncsc1-c1ccc(CNC(=O)[C@@H]2C[C@@H](O)CN2C(=O)[C@@H](NC(=O)COCCOCCOCCOCCOc2cc(F)c([C@@H]3c4[nH]c5ccccc5c4C[C@@H](C)N3CC(C)(C)F)c(F)c2)C(C)(C)C)cc1 [Example 37, (2S,4R)-1-((S)-2-(tert-Butyl)-17-(3,5-difluoro-4-((1R,3R)-2-(2-fluoro-2-methylpropyl)-3-methyl-2,3,4,9-tetrahydro-1H-pyrido[3,4-b]indol-1-yl)phenoxy)-4-oxo-6,9,12,15-tetraoxa-3-azaheptadecanoyl)-4-hydroxy-N-(4-(4-methylthiazol-5-yl)benzyl)pyrrolidine-2-carboxamide] | 8.19 |
| Cc1ncsc1-c1ccc(CNC(=O)C2CC(O)CN2C(=O)C(NC(=O)COCCOc2cc(F)c(C3c4[nH]c5ccccc5c4CC(C)N3CC(C)(C)F)c(F)c2)C(C)(C)C)cc1 [Example 40, (2S,4R)-1-((S)-2-(2-(2-(3,5-Difluoro-4-((1R,3R)-2-(2-fluoro-2-methylpropyl)-3-methyl-2,3,49-tetrahydro-1H-pyrido[3,4-b]indol-1-yl)phenoxy)ethoxy)acetamido)-3,3-dimethylbutanoyl)-4-hydroxy-N-(4-(4-methylthiazol-5-yl)benzyl)pyrrolidine-2-carboxamide] | 8.89 |
| Cc1ncsc1-c1ccc(CNC(=O)[C@@H]2C[C@@H](O)CN2C(=O)[C@@H](NC(=O)COCCCCCN(CCOc2cc(F)c([C@@H]3c4[nH]c5ccccc5c4C[C@@H](C)N3CC(C)(C)F)c(F)c2)C(=O)OCc2ccccc2)C(C)(C)C)cc1 [Example 45, Benzyl (2-(3,5-difluoro-4-((1R,3R)-2-(2-fluoro-2-methylpropyl)-3-methyl-2,3,4,9-tetrahydro-1H-pyrido[3,4-b]indol-1-yl)phenoxy)ethyl)(5-(2-(((S)-1-((2S,4R)-4-hydroxy-2-((4-(4-methylthiazol-5-yl)benzyl)carbamoyl)pyrrolidin-1-yl)-3,3-dimethyl-1-oxobutan-2-yl)amino)-2-oxoethoxy)pentyl)carbamate] | 8.92 |
| Cc1ncsc1-c1ccc(CNC(=O)[C@@H]2C[C@@H](O)CN2C(=O)[C@@H](NC(=O)COCCCC2CN(CCOc3cc(F)c([C@@H]4c5[nH]c6ccccc6c5C[C@@H](C)N4CC(C)(C)F)c(F)c3)C2)C(C)(C)C)cc1 [Example 47, (2S,4R)-1-((S)-2-(2-(3-(1-(2-(3,5-difluoro-4-((1R,3R)-2-(2-fluoro-2-methylpropyl)-3-methyl-2,3,4,9-tetrahydro-1H-pyrido[3,4-b]indol-1-yl)phenoxy)ethyl)azetidin-3-yl)propoxy)acetamido)-3,3-dimethylbutanoyl)-4-hydroxy-N-(4-(4-methylthiazol-5-yl)benzyl)pyrrolidine-2-carboxamide] | 9.15 |
| Cc1ncsc1-c1ccc(CNC(=O)[C@@H]2C[C@@H](O)CN2C(=O)[C@@H](NC(=O)COCCCCCNCCOc2cc(F)c([C@@H]3c4[nH]c5ccccc5c4C[C@@H](C)N3CC(C)(C)F)c(F)c2)C(C)(C)C)cc1 [Example 48, (2S,4R)-1-((S)-2-(2-((5-((2-(3,5-difluoro-4-((1R,3R)-2-(2-fluoro-2-methylpropyl)-3-methyl-2,3,4,9-tetrahydro-1H-pyrido[3,4-b]indol-1-yl)phenoxy)ethyl)amino)pentyl)oxy)acetamido)-3,3-dimethylbutanoyl)-4-hydroxy-N-(4-(4-methylthiazol-5-yl)benzyl)pyrrolidine-2-carboxamide] | 9.00 |
| Cc1ncsc1-c1ccc(CNC(=O)[C@@H]2C[C@@H](O)CN2C(=O)[C@@H](NC(=O)COCCCCCN(C)CCOc2cc(F)c([C@@H]3c4[nH]c5ccccc5c4C[C@@H](C)N3CC(C)(C)F)c(F)c2)C(C)(C)C)cc1 [Example 49, (2S,4R)-1-((S)-2-(2-((5-((2-(3,5-difluoro-4-((1R,3R)-2-(2-fluoro-2-methylpropyl)-3-methyl-2,3,4,9-tetrahydro-1H-pyrido[3,4-b]indol-1-yl)phenoxy)ethyl)(methyl)amino)pentyl)oxy)acetamido)-3,3-dimethylbutanoyl)-4-hydroxy-N-(4-(4-methylthiazol-5-yl)benzyl)pyrrolidine-2-carboxamide] | 9.00 |
| Cc1ncsc1-c1ccc(CNC(=O)[C@@H]2C[C@@H](O)CN2C(=O)[C@@H](NC(=O)COCCCCCCOc2cc(F)c([C@@H]3c4[nH]c5ccccc5c4C[C@@H](C)N3CC(C)(C)F)c(F)c2)C(C)(C)C)cc1 [Example 51, (2S,4R)-1-((S)-2-(2-((6-(3,5-difluoro-4-((1R,3R)-2-(2-fluoro-2-methylpropyl)-3-methyl-2,3,4,9-tetrahydro-1H-pyrido[3,4-b]indol-1-yl)phenoxy)hexyl)oxy)acetamido)-3,3-dimethylbutanoyl)-4-hydroxy-N-(4-(4-methylthiazol-5-yl)benzyl)pyrrolidine-2-carboxamide] | 8.70 |
| Cc1ncsc1-c1ccc(CNC(=O)[C@@H]2C[C@@H](O)CN2C(=O)[C@@H](NC(=O)COCCc2ccc(COc3cc(F)c([C@@H]4c5[nH]c6ccccc6c5C[C@@H](C)N4CC(C)(C)F)c(F)c3)cc2)C(C)(C)C)cc1 [Example 53, (2S,4R)-1-((S)-2-(2-(4-((3,5-difluoro-4-((1R,3R)-2-(2-fluoro-2-methylpropyl)-3-methyl-2,3,4,9-tetrahydro-1H-pyrido[3,4-b]indol-1-yl)phenoxy)methyl)phenethoxy)acetamido)-3,3-dimethylbutanoyl)-4-hydroxy-N-(4-(4-methylthiazol-5-yl)benzyl)pyrrolidine-2-carboxamide] | 9.00 |
| Cc1ncsc1-c1ccc(CNC(=O)[C@@H]2C[C@@H](O)CN2C(=O)[C@@H](NC(=O)COCCOCCOCCOCCOCCOCC(=O)Nc2ccc([C@@H]3c4[nH]c5ccccc5c4C[C@@H](C)N3CC(C)(C)F)cc2)C(C)(C)C)cc1 [Example 54, N^1-(4-((1R,3R)-2-(2-fluoro-2-methylpropyl)-3-methyl-2,3,4,9-tetrahydro-1H-pyrido[3,4-b]indol-1-yl)phenyl)-N^18—((S)-1-((2S,4R)-4-hydroxy-2-(4-(4-methylthiazol-5-yl)benzylcarbamoyl)pyrrolidin-1-yl)-3,3-dimethyl-1-oxobutan-2-yl)-2,5,8,11,14,17-hexaoxaoctadecane-1,18-dicarboxamide, Trifluoroacetic Acid] | 7.80 |
| Cc1ncsc1-c1ccc(CNC(=O)[C@@H]2C[C@@H](O)CN2C(=O)[C@@H](NC(=O)COCCOCCOCCOc2cc(F)c([C@@H]3c4[nH]c5ccccc5c4C[C@@H](C)N3C[C@H](C)CO)c(F)c2)C(C)(C)C)cc1 [Example 101, (2S,4R)-1-((S)-2-(tert-butyl)-14-(3,5-difluoro-4-((1R,3R)-2-((S)-3-hydroxy-2-methylpropyl)-3-methyl-2,3,4,9-tetrahydro-1H-pyrido[3,4-b]indol-1-yl)phenoxy)-4-oxo-6,9,12-trioxa-3-azatetradecanoyl)-4-hydroxy-N-(4-(4-methylthiazol-5-yl)benzyl)pyrrolidine-2-carboxamide] | 8.48 |
| Cc1ncsc1-c1ccc([C@@H](CN)NC(=O)[C@@H]2C[C@@H](O)CN2C(=O)[C@@H](NC(=O)COCCOCCOCCOc2cc(F)c([C@@H]3c4[nH]c5ccccc5c4C[C@@H](C)N3CC(C)(C)F)c(F)c2)C(C)(C)C)cc1 [Example 106, (2S,4R)—N-[(1S)-2-amino-1-[4-(4-methylthiazol-5-yl)phenyl]ethyl]-1-[(2S)-2-[[2-[2-[2-[2-[3,5-difluoro-4-[(1R,3R)-2-(2-fluoro-2-methyl-propyl)-3-methyl-1,3,4,9-tetrahydropyrido[3,4-b]indol-1-yl]phenoxy]ethoxy]ethoxy]ethoxy]acetyl]amino]-3,3-dimethyl-butanoyl]-4-hydroxy-pyrrolidine-2-carboxamide] | 9.10 |
| Cc1ncsc1-c1ccc([C@@H](CN(C)C)NC(=O)[C@@H]2C[C@@H](O)CN2C(=O)[C@@H](NC(=O)COCCOCCOCCOc2cc(F)c([C@@H]3c4[nH]c5ccccc5c4C[C@@H](C)N3CC(C)(C)F)c(F)c2)C(C)(C)C)cc1 [Example 107, (2S,4R)-1-[(2S)-2-[[2-[2-[2-[2-[3,5-Difluoro-4-[(1R,3R)-2-(2-fluoro-2-methyl-propyl)-3-methyl-1,3,4,9-tetrahydropyrido[3,4-b]indol-1-yl]phenoxy]ethoxy]ethoxy]ethoxy]acetyl]amino]-3,3-dimethyl-butanoyl]-N-[(1S)-2-(dimethylamino)-1-[4-(4-methylthiazol-5-yl)phenyl]ethyl]-4-hydroxy-pyrrolidine-2-carboxamide] | 8.40 |

From patent US10519152B2, “Compounds and their use in treating cancer” (AstraZeneca AB, priority 2017, dated 2019)
